Assays:
[1] = molecular target: T1, Capsid scaffolding protein (Human cytomegalovirus (strain AD169) (HHV-5) (Human herpesvirus 5), UniProt P16753); assay: Inhibition of Human cytomegalo virus(HCMV) protease activity measured by HPLC assay; parameters: species or system Human herpesvirus 5 strain AD169
T1 sequence (P16753 whole entry): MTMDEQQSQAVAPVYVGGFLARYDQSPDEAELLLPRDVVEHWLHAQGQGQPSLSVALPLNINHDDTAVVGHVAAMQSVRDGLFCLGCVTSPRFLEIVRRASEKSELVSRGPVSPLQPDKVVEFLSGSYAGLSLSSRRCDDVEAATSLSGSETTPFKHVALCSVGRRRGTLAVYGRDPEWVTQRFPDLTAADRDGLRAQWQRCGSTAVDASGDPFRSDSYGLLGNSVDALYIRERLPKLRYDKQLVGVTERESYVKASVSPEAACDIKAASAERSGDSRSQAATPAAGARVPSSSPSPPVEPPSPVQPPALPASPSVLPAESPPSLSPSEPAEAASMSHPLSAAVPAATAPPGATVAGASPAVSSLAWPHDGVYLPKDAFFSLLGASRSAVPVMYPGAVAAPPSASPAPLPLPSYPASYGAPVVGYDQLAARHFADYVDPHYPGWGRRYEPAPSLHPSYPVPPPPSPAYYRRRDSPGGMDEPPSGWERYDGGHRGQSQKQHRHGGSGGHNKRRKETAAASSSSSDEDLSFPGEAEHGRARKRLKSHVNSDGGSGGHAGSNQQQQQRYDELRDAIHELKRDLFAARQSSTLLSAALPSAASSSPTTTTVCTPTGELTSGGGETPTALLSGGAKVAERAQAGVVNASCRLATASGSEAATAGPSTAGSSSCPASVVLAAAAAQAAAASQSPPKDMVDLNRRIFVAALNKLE

[2] = molecular target: T1, Capsid scaffolding protein; assay: Concentration required for inhibition of human cytomegalo virus (HCMV) protease activity.; parameters: species or system Human herpesvirus 5 strain AD169
Acetylcholinesterase = Acetylcholinesterase (Homo sapiens, UniProt P22303); assay: Concentration required for 50% Acetylcholinesterase inhibition
Sequence of Acetylcholinesterase (P22303 whole entry): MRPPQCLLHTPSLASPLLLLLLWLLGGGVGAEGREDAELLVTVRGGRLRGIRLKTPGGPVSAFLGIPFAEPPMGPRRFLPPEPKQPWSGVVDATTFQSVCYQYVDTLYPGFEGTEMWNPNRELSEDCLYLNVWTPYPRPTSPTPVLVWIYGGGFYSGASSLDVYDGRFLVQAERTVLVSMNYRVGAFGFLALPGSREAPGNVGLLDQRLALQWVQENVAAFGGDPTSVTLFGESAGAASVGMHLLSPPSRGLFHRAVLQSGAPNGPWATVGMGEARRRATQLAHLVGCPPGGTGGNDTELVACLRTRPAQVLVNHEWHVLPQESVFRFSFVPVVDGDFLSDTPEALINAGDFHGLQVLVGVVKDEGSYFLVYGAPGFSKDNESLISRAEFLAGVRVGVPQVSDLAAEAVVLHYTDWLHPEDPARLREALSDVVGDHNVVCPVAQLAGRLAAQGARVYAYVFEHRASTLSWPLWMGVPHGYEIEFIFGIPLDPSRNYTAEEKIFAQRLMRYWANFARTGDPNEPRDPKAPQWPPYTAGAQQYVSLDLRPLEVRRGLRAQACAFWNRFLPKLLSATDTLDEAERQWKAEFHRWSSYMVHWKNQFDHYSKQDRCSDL

[3] = Concentration required for 50% elastase inhibition
Prothrombin = Prothrombin (Homo sapiens, UniProt P00734); assay: Concentration required for 50% thrombin inhibition

| Compound | IC50 [2] [µM] | further results |
| --- | --- | --- |
| CC(=O)OCC(=O)N1C(=O)C(C)C2C1CCN2C(=O)OCc1ccccc1 (centres undefined) |  | IC50 [1]: 13 µM |
| C[C@@H]1C(=O)N(C(=O)C2CC2)[C@H]2CCN(C(=O)[C@@H]3CCCN3S(=O)(=O)Cc3cccc(N(C)C)c3)[C@H]12 | 2.2 |  |
| CC(C)Oc1cccc(S(=O)(=O)N2CCC[C@H]2C(=O)N2CC[C@H]3[C@H]2[C@H](C)C(=O)N3C(=O)C2CC2)c1 | 65 |  |
| C[C@@H]1C(=O)N(C(=O)C2[C@@H](C)[C@H]2C)[C@H]2CCN(C(=O)OCc3ccccc3)C12 (some centres undefined) | 72 |  |
| C[C@@H]1C(=O)N(C(=O)C2Cc3ccccc32)[C@H]2CCN(C(=O)OCc3ccccc3)C12 (some centres undefined) | 11.5 |  |
| C[C@@H]1C(=O)N(C=O)[C@H]2CCN(C(=O)OCc3ccccc3)C12 (some centres undefined) | 398 |  |
| C[C@H]1C(=O)N(C(=O)C2CC2)[C@@H]2CCN(C(=O)C3CCCCN3S(=O)(=O)c3cccc4c(N(C)C)cccc34)[C@H]21 (some centres undefined) | 13 |  |
| CC(=O)N1C(=O)[C@H](C)[C@H]2[C@H]1CCN2C(=O)[C@@H]1CCCN1S(=O)(=O)c1ccc([N+](=O)[O-])cc1 | 11 |  |
| C[C@@H]1C(=O)N(CC(O)COc2ccccc2)[C@H]2CCN(C(=O)OCc3ccccc3)C12 (some centres undefined) | > 500 |  |
| C[C@@H]1C(=O)N(C(=O)C(C)(C)C)[C@H]2CCN(C(=O)OCc3ccccc3)C12 (some centres undefined) |  | IC50 [1]: > 500 µM |
| C[C@@H]1C(=O)N(C(=O)C2CCC2)[C@H]2CCN(C(=O)OCc3ccccc3)C12 (some centres undefined) |  | IC50 [1]: 32 µM |
| CC(=O)N1C(=O)[C@H](C)[C@H]2[C@H]1CCN2C(=O)[C@@H]1CCCN1C(=O)c1ccccc1 | > 500 |  |
| C[C@@H]1C(=O)N(C(=O)CCO)[C@H]2CCN(C(=O)OCc3ccccc3)C12 (some centres undefined) |  | IC50 [1]: 133 µM |
| CC(=O)N1C(=O)[C@H](C)[C@H]2[C@H]1CCN2C(=O)[C@@H]1CCCN1S(=O)(=O)c1cccc2c(N(C)C)cccc12 | > 500 |  |
| C[C@@H]1C(=O)N(C(=O)C2[C@@H](C)[C@@H]2C)[C@H]2CCN(C(=O)OCc3ccccc3)C12 (some centres undefined) | > 100 |  |
| CC(=O)OCC(=O)N1C(=O)[C@@H](C)C2[C@@H]1CCN2C(=O)OCc1ccccc1 (some centres undefined) |  | IC50 [1]: 6 µM |
| Cc1ccc(S(=O)(=O)N2CCCC2C(=O)N2CC[C@H]3C2[C@H](C)C(=O)N3C=O)cc1 (some centres undefined) | 14 |  |

| Compound | IC50 [2] [µM] | further results |
| --- | --- | --- |
| CC(=O)N1C(=O)[C@@H](C)[C@@H]2[C@@H]1CCN2C(=O)[C@@H]1CCCN1C(=O)c1ccccc1 | 50 |  |
| CC1CC1C(=O)N1C(=O)[C@@H](C)C2[C@@H]1CCN2C(=O)OCc1ccccc1 (some centres undefined) | 10 |  |
| C[C@@H]1C(=O)N(C(=O)C2CC2)[C@H]2CCN(C(=O)OCc3ccccc3)C12 (some centres undefined) | 9 |  |
| C[C@@H]1C(=O)N(C(=O)C2CC2)[C@H]2CCN(C(=O)[C@@H]3CCCN3S(=O)(=O)c3cccc(C(=O)N(C)C)c3)[C@H]12 | 1.4 |  |
| C[C@H]1C(=O)N(C(=O)C2CC2)[C@@H]2CCN(C(=O)CN(C)S(=O)(=O)c3cccc4c(N(C)C)cccc34)[C@H]21 | > 100 |  |
| CC(=O)N1C(=O)[C@@H](C)C2[C@@H]1CCN2S(=O)(=O)CCc1ccccc1 (some centres undefined) | 45 |  |
| CC(=O)N1C(=O)[C@H](C)[C@H]2[C@H]1CCN2C(=O)[C@@H]1CCCN1S(=O)(=O)c1ccc(C)cc1 | 159 |  |
| C[C@@H]1C(=O)N(C(=O)C2C(C)(C)C2(C)C)[C@H]2CCN(C(=O)OCc3ccccc3)C12 (some centres undefined) | > 500 |  |
| CC(=O)N1C(=O)[C@@H](C)C2[C@@H]1CCN2C(=O)Cc1c(C)[nH]c2ccc(F)cc12 (some centres undefined) |  | IC50 [1]: 6 µM |
| COc1ccc(C(=O)N2C(=O)[C@@H](C)C3[C@@H]2CCN3C(=O)OCc2ccccc2)cc1 (some centres undefined) | > 500 |  |
| CC(NS(=O)(=O)c1cccc2c(N(C)C)cccc12)C(=O)N1CC[C@@H]2[C@@H]1[C@@H](C)C(=O)N2C(=O)C1CC1 (some centres undefined) | 7 |  |
| C[C@@H]1C(=O)N(C(=O)C2CC2)[C@H]2CCN(C(=O)[C@@H]3CCCN3S(=O)(=O)c3cccc4c(N(C)C)cccc34)[C@H]12 |  | IC50 (Acetylcholinesterase): > 100 µM; IC50 [3]: > 10 µM; IC50 (Prothrombin): > 200 µM |
| CC(C)C(=O)N1C(=O)[C@@H](C)C2[C@@H]1CCN2C(=O)OCc1ccccc1 (some centres undefined) |  | IC50 [1]: 126 µM |
| CC(=O)N1C(=O)[C@@H](C)[C@@H]2[C@@H]1CCN2C(=O)[C@@H]1CCCN1S(=O)(=O)c1cccc2c(N(C)C)cccc12 | 0.54 | IC50 (Acetylcholinesterase): > 100 µM; IC50 [3]: > 10 µM; IC50 (Prothrombin): > 200 µM |
| CC(=O)N1C(=O)[C@@H](C)C2[C@@H]1CCN2CC(=O)Cc1ccccc1 (some centres undefined) | 79 |  |
| CC(=O)N1C(=O)[C@@H](C)C2[C@@H]1CCN2C(=O)COc1ccccc1 (some centres undefined) | 63 |  |
| CC(=O)N1C(=O)[C@@H](C)C2[C@@H]1CCN2C(=O)C(=O)c1cccn1C (some centres undefined) |  | IC50 [1]: 5 µM |

Reference: ChEMBL document CHEMBL1135388, “Design and synthesis of pyrrolidine-5,5-trans-lactams (5-oxohexahydropyrrolo[3,2-b]pyrroles) as novel mechanism-based inhibitors of human cytomegalovirus protease. 2. Potency and chirality” (J Med Chem, 2002)
